# US6242432A, “Antithrombotic organic nitrates” (Nicox S.A., priority 1996, dated 2001)
# How the values were obtained:
# [1] = system: platelet aggregation induced by collagen; experiment: Antiplatelet activity: inhibition of collagen-induced platelet aggregation in vivo; parameters: species or system male Wistar rats; conditions: rats, 10 mg/kg oral daily for 5 days; collagen 2 mg/kg i.v.; per-cent inhibition of the control group
# Description: (§1) The products from Examples 1 and 2 had been administered in vivo always as 2%-by-weight suspensions in carboxymethyl cellulose.
# (§2) The experimental groups were made up of 6 to 8 samples to allow appropriate statistical evaluation, which was carried out when needed.
# The ability of NO-ENA and NO-TIM to inhibit platelet aggregation was evaluated using an in vivo model as described by Pinon (J. Pharmacol. Methods 12,79,1989). 5 groups of male Wistar rats (200 to 250 g) received an oral daily dose of 10 mg/kg of respectively, NO-ENA, enalapril, NO-TIM, timolol or vehicle for 5 days. At an appropriate time on the forth day food (but not water) was withdrawn. 18 to 20 hours later the animals received the last treatment. One hour later the animals were anaesthetized with 10% urethane ([…] intraperitoneally) and the left jugular vein and right carotid artery were incannulated. Collagen (type 6, Sigma) was then administered intravenously at a dose of 2 mg/kg. Three minutes later two blood samples (A and B) were collected from the carotide artery using 2.5-ml plastic syringes in the following manner: sample A, 0.4 ml of blood in 1.6 ml of EDTA/formalin buffer (ETDA tetrasodium salt 24 mM, KH2 PO4 1.3 mM, Na2 PO4 13.4 mM), the samples were then transferred into 5-ml polystyrene test tubes and allowed to settle for 15 minutes at ambient temperature. After this time, the platelet aggregations in sample A were fixed in formalin, while those from sample B were treated with EDTA. Platelet count was then made in each sample using a conventional microscope. The count for sample B was the total number of platelets, while for sample A were considered only non-aggregated platelets. The results were expressed as per-cent aggregation, calculated as follows: {[1-(platelet count in sample A)/(platelet count in sample B)]×100}.
# [2] = system: thrombosis induced by collagen plus adrenaline; experiment: Antithrombotic activity: collagen plus adrenaline induced thrombosis/death; assay type: in vivo, male Charles River rats of the Swiss strain; conditions: 10 mg/kg oral daily for 5 days; collagen plus adrenaline 100 μM into caudal vein
# Description: as §1, §2
# 5 groups of male Charles River rats of the Swiss strain, 15 to 20 g, received a daily oral dose of 10 mg/kg of, respectively, NO-ENA, enalapril, NO-TIM, timolol or vehicle for 5 days. At an appropriate time on the fourth day food (but not water) was withdrawn. 18 to 20 hours later the animals received the last treatment. One hour later the animals were injected into the caudal vein with 0.1 ml of a collagen (type 6, Sigma) mixture plus adrenaline hydrochloride (100 μM) diluted in a solution of 0.154 M sodium chloride. As previously explained (Cirino G. et al., Thrombosis Reasearch 79, 73, 1995), injection of this mixture caused death within 3 minutes in 90% of the control animals.
# [3] = system: bronchoconstriction induced by capsaicin; experiment: Effects on capsaicin-induced bronchoconstriction; assay type: in vivo, female Guinea pigs; conditions: Guinea pigs, 10 mg/kg intraduodenal; capsaicin 1 μg/kg 45 min later; vehicle = 100
# Description: Bronchoconstriction induced by capsaicin in Guinea pigs is an animal model related to the ability of ACE (angiotensin-converting enzyme) inhibitors to cause cough in patients (Subissi et al., J. Cardiovasc. Pharmacol.20/1,139-146, 1992).
# Adopted test conditions were as previously described by Del Soldato et al. (J. Pharmacological Methods 5, 279, 1981). Female Guinea pigs weighing 300 to 400 g were anaesthetised by intraperitoneal injection of sodium 5,5-diethylbarbiturate (200 mg/kg) and maintained under artificial respiration at constant positive pressure. The right jugular vein was incannulated for administering […]. By a median incision of the abdomen, the duodenum was removed and through a small incision the tip of a suitable polyethylene cannula was inserted and fixed. The other end of the cannula was connected to a syringe for intraduodenal administration of NO-ENA (10 mg/kg), enalapril (10 mg/kg) or vehicle. […] Before and after injection of capsaicin, changes in the tidal area were measured by a modified Konzett apparatus connected to a suitable polygraphic amplifier (Hewlett Packard).
# The results were calculated as the ratio of the responses obtained before and after administration of the test compound, expressed as a % of the response obtained with the vehicle alone, shown in Table 4.
# [4] = system: arterial hypertension induced by L-NAME; experiment: Antihypertensive activity: L-NAME induced arterial hypertension; assay type: in vivo, male Wistar rats; conditions: rats, 10 mg/kg intravenous daily for 5 days, 1 h after treatment, vehicle 170 ± 7, * P < 0.05 versus the other two groups
# Description: as §1, §2
# The ability of NO-ENA to inhibit hypertension was evaluated using an in vivo model as described by Ribeiro et al. (Hypertension 20, 298, 1992). 5 groups of male Wistar rats (235 to 284 g) received a daily intravenous dose of 10 mg/kg of, respectively, NO-ENA, enalapril, NO-TIM, timolol or vehicle for 5 days. Arterial hypertension was induced by administration of N^w -nitro-L-argininemethyl ester (L-NAME) in the drinking water for 6 weeks. L-NAME was dissolved in the drinking water at a concentration of 60 to 70 mg 100 ml^-1 so as to administer a daily amount of about 60 mg kg^-1. One hour after treatment the systemic blood pressure was measured by the tail-cap method (Zats, Lab. Anim. Sci.42, 198, 1990).
# intraocular pressure = experiment: Ocular hypotensive activity, topical application in rabbits; assay type: in vivo; conditions: topical application of 100 μg
# [5] = Plasma/aqueous humor concentration ratio by HPLC (ocular safety); assay type: in vivo; conditions: rabbits, topical, versus timolol
# Description: Furthermore, for NO-TIM, the ratio between product concentrations in plasma (P) and aqueous humor (AH) versus timolol was determined by an HPLC method.
BRONCHOCONSTRICTIVE RESPONSE (% of the response obtained with the vehicle alone) [3] [%],Structure (SMILES),ANTIPLATELET ACTIVITY (per-cent inhibition of platelet aggregation versus vehicle control) [1] [%],ANTITHROMBOTIC ACTIVITY (inhibition percentage compared to the control group) [2] [%],MEAN BLOOD PRESSURE [4] [mmHg],duration of intraocular pressure reduction (intraocular pressure),reduction of intraocular pressure (intraocular pressure) [mmHg],reduction of intraocular pressure versus timolol and enalapril (intraocular pressure),"P/AH ratio (plasma/aqueous humor concentration), times lower than that for timolol [5] [times]"
327,"CCOC(=O)[C@H](CCc1ccccc1)N[C@@H](C)C(=O)N1CCC[C@H]1C(=O)O [ENALAPRIL, reference compound]",15,11,163 ± 5,–,–,–,–
72,CCOC(=O)C(CCc1ccccc1)NC(C)C(=O)N1CCC[C@H]1C(=O)Oc1cccc(CO[N+](=O)[O-])c1 (stereo partly shown) [NO-ENA],65,53,115 ± 4,more than 6 hours,6,more pronounced and more lasting,–
–,"CC(C)(C)NC[C@H](COc1nsnc1N1CCOCC1)OC(=O)CCCO[N+](=O)[O-].O=C(O)/C=C\C(=O)O [NO-TIM, (R)-(4-nitroxy)butanoate of 1-[(1,1-dimethylethyl)amino]-3-{[4-(4-morpholinyl)-1,2,5-thiadiazol-3-yl]oxy}-2-propyl maleate]",58,44,–,more than 6 hours,7,more pronounced and more lasting,5.5
–,"CC(C)(C)NC[C@H](O)COc1nsnc1N1CCOCC1 [TIMOLOL, reference compound]",2,6,–,–,–,–,–
